From PMC5218480 (PLoS ONE, 2017)

Test system: MV-4-11 cells
Assay: Gene expression microarray analysis (Affymetrix PrimeView) and GSEA
Type: cell-based, human
Parameters: RFU PODN (11730768_x_at) / Fold change /veh PODN (11730768_x_at) / RFU LINC00158 (11744669_a_at) / Fold change /veh LINC00158 (11744669_a_at) / RFU DUSP10 (11751237_a_at) / Fold change /veh DUSP10 (11751237_a_at) / RFU ID3 (11757404_x_at) / Fold change /veh ID3 (11757404_x_at) / RFU PLEKHG5 (11737974_s_at) / Fold change /veh PLEKHG5 (11737974_s_at) / RFU LRRC4B (11730491_at) / Fold change /veh LRRC4B (11730491_at) / RFU GIMAP4 (11747438_a_at) / Fold change /veh GIMAP4 (11747438_a_at) / RFU KRT8 (11758183_x_at) / Fold change /veh KRT8 (11758183_x_at) / RFU CNN1 (11734310_a_at) / Fold change /veh CNN1 (11734310_a_at) / RFU VPS37D (11726825_at) / Fold change /veh VPS37D (11726825_at) / RFU C10orf10 (11716522_x_at) / Fold change /veh C10orf10 (11716522_x_at) / RFU KIR2DL2 /// KIR2DL4 /// KIR2DL5A /// KIR2DL5B /// KIR2DS1 /// KIR2DS2 /// KIR2DS3 /// KIR2DS4 /// KIR3DL3 /// KIR3DL3 /// KIR3DS1 (11738374_at) / Fold change /veh KIR2DL2 /// KIR2DL4 /// KIR2DL5A /// KIR2DL5B /// KIR2DS1 /// KIR2DS2 /// KIR2DS3 /// KIR2DS4 /// KIR3DL3 /// KIR3DL3 /// KIR3DS1 (11738374_at) / RFU C1QL1 (11718748_at) / Fold change /veh C1QL1 (11718748_at) / RFU TMPRSS4 (11747572_a_at) / Fold change /veh TMPRSS4 (11747572_a_at) / RFU HAMP (11756126_x_at) / Fold change /veh HAMP (11756126_x_at) / RFU RNFT2 (11725882_a_at) / Fold change /veh RNFT2 (11725882_a_at) / RFU NR4A2 (11747474_a_at) / Fold change /veh NR4A2 (11747474_a_at) / RFU ABCC12 (11746883_a_at) / Fold change /veh ABCC12 (11746883_a_at) / RFU TMEM136 (11760407_x_at) / Fold change /veh TMEM136 (11760407_x_at) / RFU CLDN22 /// WWC2 (11732394_at) / Fold change /veh CLDN22 /// WWC2 (11732394_at) / RFU HLA-DPB1 (11760878_x_at) / Fold change /veh HLA-DPB1 (11760878_x_at) / RFU SPINT1 (11716480_a_at) / Fold change /veh SPINT1 (11716480_a_at) / RFU GAP43 (11754022_s_at) / Fold change /veh GAP43 (11754022_s_at) / RFU A4GNT (11735810_at) / Fold change /veh A4GNT (11735810_at) / RFU PRB3 (11715151_x_at) / Fold change /veh PRB3 (11715151_x_at) / RFU TUBB4B (11761932_at) / Fold change /veh TUBB4B (11761932_at) / RFU CAPN14 (11732068_a_at) / Fold change /veh CAPN14 (11732068_a_at) / RFU TMCC2 (11721928_a_at) / Fold change /veh TMCC2 (11721928_a_at) / RFU IRGQ (11745062_a_at) / Fold change /veh IRGQ (11745062_a_at) / RFU FAM174B (11720279_a_at) / Fold change /veh FAM174B (11720279_a_at) / RFU TMPRSS4 (11748680_a_at) / Fold change /veh TMPRSS4 (11748680_a_at) / RFU FAM212B (11763350_a_at) / Fold change /veh FAM212B (11763350_a_at) / RFU PLEKHG5 (11743358_a_at) / Fold change /veh PLEKHG5 (11743358_a_at) / RFU ZSCAN30 (11745921_a_at) / Fold change /veh ZSCAN30 (11745921_a_at) / RFU CMKLR1 (11741424_a_at) / Fold change /veh CMKLR1 (11741424_a_at) / RFU LOC101060620 /// MAPK8IP1 (11723275_at) / Fold change /veh LOC101060620 /// MAPK8IP1 (11723275_at) / RFU SPTSSB (11747773_x_at) / Fold change /veh SPTSSB (11747773_x_at) / RFU PRSS12 (11739890_at) / Fold change /veh PRSS12 (11739890_at) / RFU BIN1 (11741810_x_at) / Fold change /veh BIN1 (11741810_x_at) / RFU WNT11 (11732464_a_at) / Fold change /veh WNT11 (11732464_a_at) / RFU C10orf10 (11716521_a_at) / Fold change /veh C10orf10 (11716521_a_at) / RFU C5orf56 (11738089_at) / Fold change /veh C5orf56 (11738089_at) / RFU CYB561 (11721691_x_at) / Fold change /veh CYB561 (11721691_x_at) / RFU ANKRD19P (11752326_a_at) / Fold change /veh ANKRD19P (11752326_a_at) / RFU OR2T12 /// OR2T33 /// OR2T8 (11738714_s_at) / Fold change /veh OR2T12 /// OR2T33 /// OR2T8 (11738714_s_at) / RFU VCAN (11748164_a_at) / Fold change /veh VCAN (11748164_a_at) / RFU JSRP1 (11732532_at) / Fold change /veh JSRP1 (11732532_at) / RFU KRTAP10-11 (11738290_x_at) / Fold change /veh KRTAP10-11 (11738290_x_at) / RFU MYO3A (11730013_a_at) / Fold change /veh MYO3A (11730013_a_at) / RFU EBF3 (11725865_a_at) / Fold change /veh EBF3 (11725865_a_at) / RFU CAMK2N1 (11719241_x_at) / Fold change /veh CAMK2N1 (11719241_x_at) / RFU C5orf56 (11738088_a_at) / Fold change /veh C5orf56 (11738088_a_at) / RFU OLFML3 (11715873_a_at) / Fold change /veh OLFML3 (11715873_a_at) / RFU LOC100653217 /// NTM (11731650_a_at) / Fold change /veh LOC100653217 /// NTM (11731650_a_at) / RFU MAPK11 (11762145_a_at) / Fold change /veh MAPK11 (11762145_a_at) / RFU FIZ1 (11724087_x_at) / Fold change /veh FIZ1 (11724087_x_at) / RFU OASL (11726364_x_at) / Fold change /veh OASL (11726364_x_at) / RFU SOX15 (11748057_x_at) / Fold change /veh SOX15 (11748057_x_at) / RFU CD79A (11719716_a_at) / Fold change /veh CD79A (11719716_a_at) / RFU HIST1H1D (11736915_at) / Fold change /veh HIST1H1D (11736915_at) / RFU CASKIN2 (11723855_a_at) / Fold change /veh CASKIN2 (11723855_a_at) / RFU LOC730098 (11760151_x_at) / Fold change /veh LOC730098 (11760151_x_at) / RFU OR4N2 (11742367_at) / Fold change /veh OR4N2 (11742367_at) / RFU PRRT2 (11749266_a_at) / Fold change /veh PRRT2 (11749266_a_at) / RFU SNX32 (11753110_a_at) / Fold change /veh SNX32 (11753110_a_at) / RFU CDHR5 (11726645_a_at) / Fold change /veh CDHR5 (11726645_a_at) / RFU RCAN1 (11760418_a_at) / Fold change /veh RCAN1 (11760418_a_at) / RFU FAM167A (11723789_a_at) / Fold change /veh FAM167A (11723789_a_at) / RFU FAM26E (11764081_at) / Fold change /veh FAM26E (11764081_at) / RFU ISYNA1 (11749810_s_at) / Fold change /veh ISYNA1 (11749810_s_at) / RFU ACY1 (11761880_at) / Fold change /veh ACY1 (11761880_at) / RFU 11764098_at / Fold change /veh 11764098_at / RFU SAMD14 (11745864_x_at) / Fold change /veh SAMD14 (11745864_x_at) / RFU NPB (11741838_a_at) / Fold change /veh NPB (11741838_a_at) / RFU TMPRSS6 (11731388_a_at) / Fold change /veh TMPRSS6 (11731388_a_at) / RFU KRTAP10-2 (11738614_at) / Fold change /veh KRTAP10-2 (11738614_at) / RFU ARHGAP8 /// PRR5-ARHGAP8 (11727945_x_at) / Fold change /veh ARHGAP8 /// PRR5-ARHGAP8 (11727945_x_at) / RFU KRTAP5-7 /// NADSYN1 (11734609_at) / Fold change /veh KRTAP5-7 /// NADSYN1 (11734609_at) / RFU RASL12 (11751679_a_at) / Fold change /veh RASL12 (11751679_a_at) / RFU CDKN2B (11736163_a_at) / Fold change /veh CDKN2B (11736163_a_at) / RFU PRF1 (11729649_at) / Fold change /veh PRF1 (11729649_at) / RFU, ZNF638 /// ZNF638-IT1 / Fold change vs veh, ZNF638 /// ZNF638-IT1 / RFU, PANK3 / Fold change vs veh, PANK3 / RFU, SH3YL1 / Fold change vs veh, SH3YL1 / RFU, ZEB2 / Fold change vs veh, ZEB2 / RFU, NRIP1 / Fold change vs veh, NRIP1 / RFU, PTTG1IP / Fold change vs veh, PTTG1IP / RFU, CAPN2 / Fold change vs veh, CAPN2 / RFU, MED14 / Fold change vs veh, MED14 / RFU, SNORA58 / Fold change vs veh, SNORA58 / RFU, C1orf63 / Fold change vs veh, C1orf63 / RFU, LRRFIP1 / Fold change vs veh, LRRFIP1 / RFU, NDUFAF7 / Fold change vs veh, NDUFAF7 / RFU, SLC12A2 / Fold change vs veh, SLC12A2 / RFU, IBTK / Fold change vs veh, IBTK / RFU, ESF1 / Fold change vs veh, ESF1 / Fold change vs veh, TMEM50B / RFU, TAOK1 / Fold change vs veh, TAOK1 / RFU, ACBD3 / Fold change vs veh, ACBD3 / RFU, TMA16 / Fold change vs veh, TMA16 / RFU, RWDD3 / Fold change vs veh, RWDD3 / RFU, BCAT1 / Fold change vs veh, BCAT1 / RFU, EDEM3 / Fold change vs veh, EDEM3 / RFU, TMEM33 / Fold change vs veh, TMEM33 / RFU, WDR75 / Fold change vs veh, WDR75 / RFU, AHCTF1 / Fold change vs veh, AHCTF1 / RFU, TFRC / Fold change vs veh, TFRC / RFU, ZDHHC17 / Fold change vs veh, ZDHHC17 / RFU, NOM1 / Fold change vs veh, NOM1 / RFU, ARL8B / Fold change vs veh, ARL8B / RFU, ZBTB11 / Fold change vs veh, ZBTB11 / RFU, TAMM41 / Fold change vs veh, TAMM41 / RFU, KIAA1704 /// LOC100996395 / Fold change vs veh, KIAA1704 /// LOC100996395 / RFU, ING1 / Fold change vs veh, ING1 / RFU, TRMT61B / Fold change vs veh, TRMT61B / RFU, FUBP3 / Fold change vs veh, FUBP3 / RFU, TP53 / Fold change vs veh, TP53 / RFU, TNKS2 / Fold change vs veh, TNKS2 / RFU, ZFP14 / Fold change vs veh, ZFP14 / RFU, ACTR2 / Fold change vs veh, ACTR2 / RFU, PPP3R1 / Fold change vs veh, PPP3R1 / RFU, PIK3R1 / Fold change vs veh, PIK3R1 / RFU, HNRNPA1 / Fold change vs veh, HNRNPA1 / RFU, RNF170 / Fold change vs veh, RNF170 / RFU, ZNF28 / Fold change vs veh, ZNF28 / RFU, RNGTT / Fold change vs veh, RNGTT / RFU, OGT / Fold change vs veh, OGT / RFU, BRD1 / Fold change vs veh, BRD1 / RFU, MARS / Fold change vs veh, MARS / RFU, ZNF655 / Fold change vs veh, ZNF655 / RFU, FAHD1 / Fold change vs veh, FAHD1 / RFU, BDP1 / Fold change vs veh, BDP1 / RFU, LRRCC1 / Fold change vs veh, LRRCC1 / RFU, ARID1A / Fold change vs veh, ARID1A / RFU, ZNF146 / Fold change vs veh, ZNF146 / RFU, ZNF330 / Fold change vs veh, ZNF330 / RFU, GPN3 / Fold change vs veh, GPN3 / RFU, C9orf123 / Fold change vs veh, C9orf123 / RFU, N4BP2L2 / Fold change vs veh, N4BP2L2 / RFU, ARFIP1 / Fold change vs veh, ARFIP1 / RFU, FAM179B / Fold change vs veh, FAM179B / RFU, BCL10 / Fold change vs veh, BCL10 / RFU, UHRF1BP1L / Fold change vs veh, UHRF1BP1L / RFU, BET1 / Fold change vs veh, BET1 / RFU, CNOT2 / Fold change vs veh, CNOT2 / RFU, ZNF268 / Fold change vs veh, ZNF268 / Fold change vs veh, ZNF507 / RFU, DGCR2 / Fold change vs veh, DGCR2 / RFU, WDSUB1 / Fold change vs veh, WDSUB1 / Fold change vs veh, HSP90B1 /// MIR3652 / RFU, ADSS / Fold change vs veh, ADSS / RFU, GK / Fold change vs veh, GK / RFU, ZNF148 / Fold change vs veh, ZNF148 / RFU, TAF9 / Fold change vs veh, TAF9 / RFU, SLC1A5 / Fold change vs veh, SLC1A5 / RFU, SLMO2 / Fold change vs veh, SLMO2 / RFU, ABCC4 / Fold change vs veh, ABCC4 / RFU, LOC101060439 /// RAP1B / Fold change vs veh, LOC101060439 /// RAP1B / RFU, RFX7 / Fold change vs veh, RFX7 / RFU, GTPBP10 / Fold change vs veh, GTPBP10 / RFU, CNEP1R1 / Fold change vs veh, CNEP1R1 / RFU, BIVM-ERCC5 /// ERCC5 / Fold change vs veh, BIVM-ERCC5 /// ERCC5 / RFU, ILF3 / Fold change vs veh, ILF3 / RFU 11762660_at / Fold change /veh 11762660_at / RFU VCAN (11757783_s_at) / Fold change /veh VCAN (11757783_s_at) / RFU DDX43 (11728927_at) / Fold change /veh DDX43 (11728927_at) / RFU KRT8 (11758188_x_at) / Fold change /veh KRT8 (11758188_x_at) / RFU NKD1 (11759106_at) / Fold change /veh NKD1 (11759106_at) / RFU SRD5A1 (11742802_a_at) / Fold change /veh SRD5A1 (11742802_a_at) / RFU TPSAB1 /// TPSB2 (11721975_s_at) / Fold change /veh TPSAB1 /// TPSB2 (11721975_s_at) / RFU GSTM3 (11746129_a_at) / Fold change /veh GSTM3 (11746129_a_at) / RFU IL23R (11737362_x_at) / Fold change /veh IL23R (11737362_x_at) / RFU TMEM51 (11727254_a_at) / Fold change /veh TMEM51 (11727254_a_at) / RFU PIWIL2 (11732686_x_at) / Fold change /veh PIWIL2 (11732686_x_at) / RFU ORM1 (11744905_x_at) / Fold change /veh ORM1 (11744905_x_at) / RFU CCDC152 (11743942_at) / Fold change /veh CCDC152 (11743942_at) / RFU ECM1 (11717891_a_at) / Fold change /veh ECM1 (11717891_a_at) / RFU IL23R (11748794_a_at) / Fold change /veh IL23R (11748794_a_at) / RFU TNFAIP8L3 (11732012_x_at) / Fold change /veh TNFAIP8L3 (11732012_x_at) / RFU MBOAT4 (11741988_at) / Fold change /veh MBOAT4 (11741988_at) / RFU 11764193_at / Fold change /veh 11764193_at / RFU TMEM53 (11763286_at) / Fold change /veh TMEM53 (11763286_at) / RFU MAGEB2 (11727129_at) / Fold change /veh MAGEB2 (11727129_at) / RFU TMEM200A (11744735_a_at) / Fold change /veh TMEM200A (11744735_a_at) / RFU CCDC152 (11751479_a_at) / Fold change /veh CCDC152 (11751479_a_at) / RFU FAM211A (11726209_a_at) / Fold change /veh FAM211A (11726209_a_at) / RFU RGS16 (11746705_a_at) / Fold change /veh RGS16 (11746705_a_at) / RFU VCAN (11755009_s_at) / Fold change /veh VCAN (11755009_s_at) / RFU RHOB (11743442_s_at) / Fold change /veh RHOB (11743442_s_at) / RFU RGS16 (11720943_a_at) / Fold change /veh RGS16 (11720943_a_at) / RFU RGS16 (11720944_at) / Fold change /veh RGS16 (11720944_at) / RFU, VPS4B / Fold change vs veh, VPS4B / RFU, CREB1 / Fold change vs veh, CREB1 / RFU, DNAJC13 / Fold change vs veh, DNAJC13 / RFU, GNAQ / Fold change vs veh, GNAQ / RFU, CDK5R1 / Fold change vs veh, CDK5R1 / RFU, ZRANB3 / Fold change vs veh, ZRANB3 / RFU, CUL4A / Fold change vs veh, CUL4A / RFU, CCNY / Fold change vs veh, CCNY / RFU, UFL1 / Fold change vs veh, UFL1 / RFU, COG3 / Fold change vs veh, COG3 / RFU, DIAPH2 / Fold change vs veh, DIAPH2 / RFU, SKA2 / Fold change vs veh, SKA2 / RFU, AFF3 / Fold change vs veh, AFF3 / RFU, LMF1 / Fold change vs veh, LMF1 / RFU, IPO11 / Fold change vs veh, IPO11 / RFU, DFFB / Fold change vs veh, DFFB / RFU, FOXP1 / Fold change vs veh, FOXP1 / RFU, CARD8 / Fold change vs veh, CARD8 / RFU, STRN3 / Fold change vs veh, STRN3 / RFU, ADK / Fold change vs veh, ADK / RFU, RASSF2 / Fold change vs veh, RASSF2 / RFU, WIPF1 / Fold change vs veh, WIPF1 / RFU, LARP1B / Fold change vs veh, LARP1B / RFU, RASA1 / Fold change vs veh, RASA1 / RFU, RB1 / Fold change vs veh, RB1 / RFU, PPFIA1 / Fold change vs veh, PPFIA1 / RFU, MAT2A / Fold change vs veh, MAT2A / RFU, CCT5 / Fold change vs veh, CCT5 / RFU, WDR92 / Fold change vs veh, WDR92 / RFU, CUX1 / Fold change vs veh, CUX1 / RFU, TTC7A / Fold change vs veh, TTC7A / RFU, TMEM135 / Fold change vs veh, TMEM135 / RFU, DEPTOR / Fold change vs veh, DEPTOR / RFU, CPM / Fold change vs veh, CPM / RFU, DNAJB6 / Fold change vs veh, DNAJB6 / RFU, CACNA2D3 / Fold change vs veh, CACNA2D3 / RFU, DTX4 / Fold change vs veh, DTX4 / RFU, TFCP2 / Fold change vs veh, TFCP2 / RFU, GMCL1 /// GMCL1P1 / Fold change vs veh, GMCL1 /// GMCL1P1 / RFU, AEBP2 / Fold change vs veh, AEBP2 / RFU, SNHG1 /// SNORD22 /// SNORD25 /// SNORD26 /// SNORD27 /// SNORD28 /// SNORD29 /// SNORD31 / Fold change vs veh, SNHG1 /// SNORD22 /// SNORD25 /// SNORD26 /// SNORD27 /// SNORD28 /// SNORD29 /// SNORD31 / Fold change (Aza/veh), C12orf56 (ProbeSet 11735607_a_at) / Fold change (ACY-1035/veh), C12orf56 (ProbeSet 11735607_a_at) / Fold change (Aza/veh), FGFR1OP (ProbeSet 11751329_s_at) / Fold change (ACY-1035/veh), FGFR1OP (ProbeSet 11751329_s_at) / Fold change (Aza/veh), VPS36 (ProbeSet 11739960_a_at) / Fold change (ACY-1035/veh), VPS36 (ProbeSet 11739960_a_at) / RFU SYPL1 (11715823_x_at) / Fold change /veh SYPL1 (11715823_x_at) / RFU IGFBP7 (11715501_s_at) / Fold change /veh IGFBP7 (11715501_s_at) / RFU REEP3 (11722064_at) / Fold change /veh REEP3 (11722064_at) / RFU IGLL1 (11728026_x_at) / Fold change /veh IGLL1 (11728026_x_at): dose or concentration left out as unconfirmed
Conditions: MV-4-11 cells, 48 hours

For `Nc1ncn([C@@H]2O[C@H](CO)[C@@H](O)[C@H]2O)c(=O)n1` [azacitidine], the “RFU KRTAP10-2 (11738614_at)” value was 10.93 RFU.
